{"source": "ChEMBL document CHEMBL1145343", "about": "“Inhibition of kinesin motor proteins by adociasulfate-2” (J Med Chem, 2006)", "key": {"[1]": {"target": "T1, Kinesin-like protein KIF11 (Homo sapiens, UniProt P52732)", "T1 sequence (P52732 whole entry)": "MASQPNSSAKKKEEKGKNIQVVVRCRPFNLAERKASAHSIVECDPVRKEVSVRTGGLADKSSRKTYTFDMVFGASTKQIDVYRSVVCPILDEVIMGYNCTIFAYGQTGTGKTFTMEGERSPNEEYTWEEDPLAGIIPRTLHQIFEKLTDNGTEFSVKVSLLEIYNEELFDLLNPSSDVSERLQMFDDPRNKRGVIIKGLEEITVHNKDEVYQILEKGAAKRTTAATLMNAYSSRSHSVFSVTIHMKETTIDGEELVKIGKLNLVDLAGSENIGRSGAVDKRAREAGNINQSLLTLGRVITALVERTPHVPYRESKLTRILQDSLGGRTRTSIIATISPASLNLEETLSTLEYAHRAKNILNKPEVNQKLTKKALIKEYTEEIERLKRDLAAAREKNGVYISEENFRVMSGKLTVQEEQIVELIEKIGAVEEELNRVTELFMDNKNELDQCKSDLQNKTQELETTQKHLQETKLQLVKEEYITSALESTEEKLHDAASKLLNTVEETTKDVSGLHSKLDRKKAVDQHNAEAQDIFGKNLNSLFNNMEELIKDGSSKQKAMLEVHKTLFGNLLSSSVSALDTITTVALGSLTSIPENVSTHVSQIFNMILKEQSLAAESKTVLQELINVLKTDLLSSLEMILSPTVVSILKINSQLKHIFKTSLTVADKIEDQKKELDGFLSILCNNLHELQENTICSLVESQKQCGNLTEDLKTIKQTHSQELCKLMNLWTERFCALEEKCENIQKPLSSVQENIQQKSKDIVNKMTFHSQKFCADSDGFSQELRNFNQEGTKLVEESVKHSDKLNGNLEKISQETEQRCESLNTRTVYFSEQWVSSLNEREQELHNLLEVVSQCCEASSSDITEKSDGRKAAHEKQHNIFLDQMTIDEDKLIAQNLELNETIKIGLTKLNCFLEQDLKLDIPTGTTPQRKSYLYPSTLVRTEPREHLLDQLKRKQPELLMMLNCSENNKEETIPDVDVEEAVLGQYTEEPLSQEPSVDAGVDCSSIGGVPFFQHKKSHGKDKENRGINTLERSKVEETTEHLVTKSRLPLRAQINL", "assay": "Inhibition of kinesin ATPase activity by enzyme-linked inorganic phosphate detection assay without preincubation"}, "[2]": {"target": "T1, Kinesin-like protein KIF11", "assay": "Inhibition of kinesin ATPase activity by enzyme-linked inorganic phosphate detection assay with 5 mins pre-incubation"}}, "data": [{"smiles": "CC1(C)CCC[C@]2(C)O[C@H]3CC[C@@]4(C)[C@@H](CC[C@]5(C)[C@@H]4CC[C@]4(C)c6c(OS(=O)(=O)O)ccc(OS(=O)(=O)O)c6C[C@@H]54)[C@]3(C)CC[C@@H]12", "note": "[ADOCIASULFATE-2]", "values": [{"measurement": "IC50", "setting": "[1]", "result": 13.9, "unit": "µM"}, {"measurement": "IC50", "setting": "[2]", "result": 7.3, "unit": "µM"}]}]}
